System: 521955-158-R2-J5-PDC complex spheroids, viability
Assay: Anticancer human tumor 521955-158-R2-J5-PDC patient-derived pancreatic carcinoma cell line growth inhibition [RAS]
Conditions: for IC50: curve of first compound; for viability, T/C: stronger effect = lower value
Method in brief: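 Tumour cells grown as complex spheroids with HUVEC endothelial cells and mesenchymal stem cells, treated with RAS pathway inhibitor combinations. Each agent spans half-log steps from near clinical Cmax, or 10 microM where Cmax is unknown.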

[1] = second compound 0.000949 µM, first compound 0.0316 µM
[2] = second compound 0.000949 µM, first compound 0.1 µM
[3] = second compound 0.000949 µM, first compound 0.316 µM
[4] = second compound 0.000949 µM, first compound 1 µM
[5] = second compound 0.003 µM, first compound 0.0316 µM
[6] = second compound 0.003 µM, first compound 0.1 µM
[7] = second compound 0.003 µM, first compound 0.316 µM
[8] = second compound 0.003 µM, first compound 1 µM
[9] = second compound 0.00949 µM, first compound 0.0316 µM
[10] = second compound 0.00949 µM, first compound 0.1 µM
[11] = second compound 0.00949 µM, first compound 0.316 µM
[12] = second compound 0.00949 µM, first compound 1 µM
[13] = second compound 0.03 µM, first compound 0.0316 µM
[14] = second compound 0.03 µM, first compound 0.1 µM
[15] = second compound 0.03 µM, first compound 0.316 µM
[16] = second compound 0.03 µM, first compound 1 µM
[17] = second compound 0.0949 µM, first compound 0.0316 µM
[18] = second compound 0.0949 µM, first compound 0.1 µM
[19] = second compound 0.0949 µM, first compound 0.316 µM
[20] = second compound 0.0949 µM, first compound 1 µM
[21] = second compound 0.3 µM, first compound 0.0316 µM
[22] = second compound 0.3 µM, first compound 0.1 µM
[23] = second compound 0.3 µM, first compound 0.316 µM
[24] = second compound 0.3 µM, first compound 1 µM
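Note: compound exposure lasted seven days before the viability read.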
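Throughout, for viability, T/C: spheroids also contain HUVEC endothelial cells and mesenchymal stem cells as stroma.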

`C[C@@H](NC(=O)c1ncnc(N)c1Cl)c1ncc(C(=O)Nc2cc(C(F)(F)F)c(Cl)cn2)s1` + C=CC(=O)N1CCN(c2nc(OCC3CCCN3C)nc3c(F)c(-c4nc(N)cc(C)c4C(F)(F)F)c(Cl)cc23)C(C)C1 was tested, and the IC50 (second compound 0.00316 µM) was > 10000 nM, the IC50 (second compound 0.01 µM) was > 10000 nM and the IC50 (second compound 0.0316 µM) was > 10000 nM. For the same molecule, the IC50 (second compound 0.1 µM) was > 10000 nM, the IC50 (second compound 0.316 µM) was > 10000 nM and the IC50 (second compound 1 µM) was 6750 nM. It also gave a viability, T/C (second compound 0.00316 µM, first compound 0.0316 µM) of 105%, a viability, T/C (second compound 0.00316 µM, first compound 0.1 µM) of 90.8% and a viability, T/C (second compound 0.00316 µM, first compound 0.316 µM) of 103%. It also gave a viability, T/C (second compound 0.00316 µM, first compound 1 µM) of 103%, a viability, T/C (second compound 0.00316 µM, first compound 3.16 µM) of 89.3% and a viability, T/C (second compound 0.00316 µM, first compound 10 µM) of 56.3%. It also gave a viability, T/C (second compound 0.01 µM, first compound 0.0316 µM) of 107%, a viability, T/C (second compound 0.01 µM, first compound 0.1 µM) of 134% and a viability, T/C (second compound 0.01 µM, first compound 0.316 µM) of 84.8%. The viability, T/C (second compound 0.01 µM, first compound 1 µM) was 130%, the viability, T/C (second compound 0.01 µM, first compound 3.16 µM) was 82.9% and the viability, T/C (second compound 0.01 µM, first compound 10 µM) was 60.2%. The viability, T/C (second compound 0.0316 µM, first compound 0.0316 µM) was 101%, the viability, T/C (second compound 0.0316 µM, first compound 0.1 µM) was 138% and the viability, T/C (second compound 0.0316 µM, first compound 0.316 µM) was 92.8%. It also gave a viability, T/C (second compound 0.0316 µM, first compound 1 µM) of 129%, a viability, T/C (second compound 0.0316 µM, first compound 3.16 µM) of 80.7% and a viability, T/C (second compound 0.0316 µM, first compound 10 µM) of 53.2%. For the same molecule, the viability, T/C (second compound 0.1 µM, first compound 0.0316 µM) was 144%, the viability, T/C (second compound 0.1 µM, first compound 0.1 µM) was 132% and the viability, T/C (second compound 0.1 µM, first compound 0.316 µM) was 112%. For the same molecule, the viability, T/C (second compound 0.1 µM, first compound 1 µM) was 86.5%, the viability, T/C (second compound 0.1 µM, first compound 3.16 µM) was 73.1% and the viability, T/C (second compound 0.1 µM, first compound 10 µM) was 54.8%. For the same molecule, the viability, T/C (second compound 0.316 µM, first compound 0.0316 µM) was 164%, the viability, T/C (second compound 0.316 µM, first compound 0.1 µM) was 179% and the viability, T/C (second compound 0.316 µM, first compound 0.316 µM) was 96%. The viability, T/C (second compound 0.316 µM, first compound 1 µM) was 96.2%, the viability, T/C (second compound 0.316 µM, first compound 3.16 µM) was 79.5% and the viability, T/C (second compound 0.316 µM, first compound 10 µM) was 57.1%. The viability, T/C (second compound 1 µM, first compound 0.0316 µM) was 198%, the viability, T/C (second compound 1 µM, first compound 0.1 µM) was 93.3% and the viability, T/C (second compound 1 µM, first compound 0.316 µM) was 88.5%. It also gave a viability, T/C (second compound 1 µM, first compound 1 µM) of 76.5%, a viability, T/C (second compound 1 µM, first compound 3.16 µM) of 74.2% and a viability, T/C (second compound 1 µM, first compound 10 µM) of 56.6%.
With `C=CC(=O)Nc1cc(Nc2nccc(-c3cn(C)c4ccccc34)n2)c(OC)cc1N(C)CCN(C)C` + CCn1c(-c2cc(N3CCN(C)CC3)cnc2C(C)OC)c2c3cc(ccc31)-c1csc(n1)CC(NC(=O)C1CC1C)C(=O)N1CCCC(N1)C(=O)OCC(C)(C)C2 the IC50 (second compound 0.000949 µM) was < 3.16 nM, the IC50 (second compound 0.003 µM) was < 3.16 nM and the IC50 (second compound 0.00949 µM) was < 3.16 nM. The IC50 (second compound 0.03 µM) was < 3.16 nM, the IC50 (second compound 0.0949 µM) was < 3.16 nM and the IC50 (second compound 0.3 µM) was < 3.16 nM. For the same molecule, the viability, T/C (second compound 0.000949 µM, first compound 0.00316 µM) was 44.6%, the viability, T/C (second compound 0.000949 µM, first compound 0.01 µM) was 53.5% and the viability, T/C [1] was 38.4%. For the same molecule, the viability, T/C [2] was 43.4%, the viability, T/C [3] was 35.7% and the viability, T/C [4] was 23.1%. It also gave a viability, T/C (second compound 0.003 µM, first compound 0.00316 µM) of 40.9%, a viability, T/C (second compound 0.003 µM, first compound 0.01 µM) of 46.9% and a viability, T/C [5] of 50.2%. The viability, T/C [6] was 43.5%, the viability, T/C [7] was 35.3% and the viability, T/C [8] was 18.7%. For the same molecule, the viability, T/C (second compound 0.00949 µM, first compound 0.00316 µM) was 41.3%, the viability, T/C (second compound 0.00949 µM, first compound 0.01 µM) was 39.6% and the viability, T/C [9] was 27.2%. It also gave a viability, T/C [10] of 31.3%, a viability, T/C [11] of 21.5% and a viability, T/C [12] of 8.47%. It also gave a viability, T/C (second compound 0.03 µM, first compound 0.00316 µM) of 19.2%, a viability, T/C (second compound 0.03 µM, first compound 0.01 µM) of 23.2% and a viability, T/C [13] of 19.4%. The viability, T/C [14] was 18.8%, the viability, T/C [15] was 14.4% and the viability, T/C [16] was 5.46%. It also gave a viability, T/C (second compound 0.0949 µM, first compound 0.00316 µM) of 16%, a viability, T/C (second compound 0.0949 µM, first compound 0.01 µM) of 9.37% and a viability, T/C [17] of 12.8%. It also gave a viability, T/C [18] of 8.37%, a viability, T/C [19] of 11.6% and a viability, T/C [20] of 2.68%. The viability, T/C (second compound 0.3 µM, first compound 0.00316 µM) was 16.4%, the viability, T/C (second compound 0.3 µM, first compound 0.01 µM) was 10.6% and the viability, T/C [21] was 9.7%. The viability, T/C [22] was 8.57%, the viability, T/C [23] was 6.24% and the viability, T/C [24] was 3.02%.
With `NC1c2ccccc2OC12CCN(c1cnc3c(N4CCCc5ncccc54)n[nH]c3n1)CC2` (stereo unspecified) + CCn1c(-c2cc(N3CCN(C)CC3)cnc2C(C)OC)c2c3cc(ccc31)-c1csc(n1)CC(NC(=O)C1CC1C)C(=O)N1CCCC(N1)C(=O)OCC(C)(C)C2 the IC50 (second compound 0.000949 µM) was < 31.6 nM, the IC50 (second compound 0.003 µM) was < 31.6 nM and the IC50 (second compound 0.00949 µM) was < 31.6 nM. For the same molecule, the IC50 (second compound 0.03 µM) was < 31.6 nM, the IC50 (second compound 0.0949 µM) was < 31.6 nM and the IC50 (second compound 0.3 µM) was < 31.6 nM. The viability, T/C [1] was 36.8%, the viability, T/C [2] was 33.9% and the viability, T/C [3] was 36.1%. It also gave a viability, T/C [4] of 20.8%, a viability, T/C (second compound 0.000949 µM, first compound 3.16 µM) of 18.5% and a viability, T/C (second compound 0.000949 µM, first compound 10 µM) of 13.4%. It also gave a viability, T/C [5] of 35.4%, a viability, T/C [6] of 28.6% and a viability, T/C [7] of 21.4%. The viability, T/C [8] was 19.2%, the viability, T/C (second compound 0.003 µM, first compound 3.16 µM) was 13.3% and the viability, T/C (second compound 0.003 µM, first compound 10 µM) was 5.75%. It also gave a viability, T/C [9] of 24.2%, a viability, T/C [10] of 16% and a viability, T/C [11] of 14.4%. For the same molecule, the viability, T/C [12] was 11.2%, the viability, T/C (second compound 0.00949 µM, first compound 3.16 µM) was 6.08% and the viability, T/C (second compound 0.00949 µM, first compound 10 µM) was 3.95%. For the same molecule, the viability, T/C [13] was 10.4%, the viability, T/C [14] was 8.87% and the viability, T/C [15] was 10.9%. It also gave a viability, T/C [16] of 8.91%, a viability, T/C (second compound 0.03 µM, first compound 3.16 µM) of 7.26% and a viability, T/C (second compound 0.03 µM, first compound 10 µM) of 4.07%. For the same molecule, the viability, T/C [17] was 11%, the viability, T/C [18] was 9.54% and the viability, T/C [19] was 11.1%. For the same molecule, the viability, T/C [20] was 5.55%, the viability, T/C (second compound 0.0949 µM, first compound 3.16 µM) was 8% and the viability, T/C (second compound 0.0949 µM, first compound 10 µM) was 3.91%. It also gave a viability, T/C [21] of 10.1%, a viability, T/C [22] of 7.36% and a viability, T/C [23] of 9.18%. For the same molecule, the viability, T/C [24] was 8.17%, the viability, T/C (second compound 0.3 µM, first compound 3.16 µM) was 9.16% and the viability, T/C (second compound 0.3 µM, first compound 10 µM) was 3.2%.

From PubChem BioAssay AID2060900 (Molecular Pharmacology Branch, DTP, NCI, 2025)
